The experiment deals with T1, human intermediate-conductance Ca2+-activated K+ channels (hIK channels) (Homo sapiens, UniProt O15554).
T1 construct: expressed in transfected cells
Briefly: Block of IK channels, whole-cell patch-clamp. The following applies: hIK cloned from human placenta, stably expressed in HEK293 cells; Ki = koff/kon from kinetics of the block. It is filed as cell-based. Here is the method:
In this example the ability of the compounds of the invention to inhibit human intermediate-conductance Ca^2+-activated K^+ channels (hIK channels) is examined.
hIK channels have been cloned from human placenta and stably expressed in HEK293 cells. The ionic current through the channels is recorded in the whole-cell mode of the patch-clamp technique.
A Ki value is calculated from the kinetics of the block.
The inhibition of the current is assumed to occur by a simple drug (D)−receptor (R) interaction after the following scheme: [drawing 3]
This is a simple bimolecular reaction, which integrated under non-equalibrium conditions are described by the equation: It=I0*(1−(C/C+(koff/kon)))*(1−exp(−(C* kon+koff)*t))) • wherein, • It=current at time t in nA • koff=off-rate in s^−1 • I0=basal current in nA • kon=on-rate in M^−1s^−1 • C=drug concentration in μM
By using the equation above, a fit to the time-course of the decrease in current yields the values koff and kon. Ki equals the ratio koff/kon, and Ki is the test value to be reported. At t=∞ (equalibrium) the equation simplifies to the Michaelis-Menten equation with Ki=IC50.

By Ki is commonly meant a measure of affinity in units of concentration, obtained from inhibition or displacement. High values mean a looser hold on the target, low ones a stronger hold on the target.

As to `N#CC(CC(=O)O)(c1ccc(F)cc1)c1ccc(F)cc1` [Compound 2, 3-Cyano-3,3-bis-(4-fluoro-phenyl)-propionic acid], the Ki is 2200 nM.
Consider `CCOC(=O)CCC(C#N)(c1ccc(F)cc1)c1ccc(F)cc1` [Compound 4, Ethyl 4-cyano-4,4-bis-(4-fluoro-phenyl) butyrate], for which the affinity, expressed as Ki, was 1400 nM.
In turn, `NC(CSC(c1ccc(F)cc1)(c1ccc(F)cc1)c1ccccc1F)=NO` [Compound 6, 2-[(2-Fluoro-phenyl)-bis-(4-fluoro-phenyl)-methanesulfanyl]-N-hydroxy acetamidine] displayed a Ki of 530 nM.
`N#CC(Cc1ccccn1)(c1ccc(F)cc1)c1ccc([N+](=O)[O-])c(C(F)(F)F)c1` (stereo not shown) [Compound 8, 2-(4Fluoro-phenyl)-2-(4-nitro-3-trifluoromethyl-phenyl)-3-pyridin-2-yl-propionitrile] showed a Ki of 65 nM.
